According to PMC13114161 (Antibiotics, 2026):
pIC50: −log10 of the molar value. Read-outs that look alike come from different tables or passages of the source.

Key:
CYP2C19 = biological target: T1, CYP2C19 (Homo sapiens, UniProt P33261); experiment: Cytochrome P450 inhibition; format: in vitro ADME; conditions: human liver microsomes, read-out: CYP Inhibition IC50, 2C19
T1 construct: from tissue; host or cells: human liver microsomes
Experimental: (§1) Inhibition of CYP1A2, CYP2D6, CYP2C9, CYP2C19, and CYP3A4 by TXA11114 was assessed in human liver microsomes by measuring the inhibition of probe substrate metabolism. Phenacetin, bufuralol, diclofenac, S-mephenytoin, and midazolam were used as probe substrates for CYP1A2, CYP2D6, CYP2C9, CYP2C19, and CYP3A4, respectively. Corresponding metabolites (acetaminophen, OH-bufuralol, 4-OH diclofenac, 4-OH mephenytoin, and 1-OH midazolam) were quantified by LC-MS/MS. Selective inhibitors (fluvoxamine (CYP1A2), quinidine (CYP2D6), sulfaphenazole (CYP2C9), ticlopidine (CYP2C19), and ketoconazole (CYP3A4)) were used as positive controls. Test and control compounds, prepared in DMSO at various concentrations, were spiked into 2× microsomal reaction mixtures, and 50 µL aliquots were transferred to individual wells. Probe substrates (25 µL, 4× concentration) were added to the respective wells and pre-incubated for 5 min at 37 °C. Reactions were initiated by the addition of 25 µL NADPH (4×) and incubated for 5 min (CYP3A4), 10 min (CYP1A2, CYP2D6, CYP2C9), or 20 min (CYP2C19). Reactions were quenched with 100 µL ice-cold acetonitrile containing glipizide as an internal standard. Plates were centrifuged at 4000 rpm for 15 min, and 100 µL supernatants were analyzed by LC-MS/MS in MRM mode. […] Percent inhibition was calculated as 100 − percent activity. IC50 values were determined using GraphPad Prism (version 5.02).

CYP2C9 = biological target: T2, CYP2C9 (Homo sapiens, UniProt P11712); experiment: Cytochrome P450 inhibition; format: in vitro ADME; conditions: human liver microsomes, read-out: CYP Inhibition IC50, 2C9
T2 construct: from tissue; host or cells: human liver microsomes
Experimental: as §1

CYP1A2 = biological target: T3, CYP1A2 (Homo sapiens, UniProt P05177); experiment: Cytochrome P450 inhibition; format: in vitro ADME; conditions: human liver microsomes, read-out: CYP Inhibition IC50, 1A2
T3 construct: from tissue; host or cells: human liver microsomes
Experimental: as §1

in vivo = conditions: female, CD-1, mouse, 30 mg/kg; for half-life: Plasma Half-life; for Vd: Plasma Vd
Experimental: The P. aeruginosa strain UNT034-1 (ATCC 27853) was used for infection studies. Female CD-1 mice (6–8 weeks old; 22 ± 2 g) were obtained from Envigo Laboratories (Indianapolis, IN, USA). All procedures were conducted in accordance with protocols approved by the University of North Texas Health Science Center (UNTHSC) Institutional Animal Care and Use Committee (protocol IACUC-2021-0003). Neutropenia was induced by intraperitoneal (i.p.) injection of cyclophosphamide (Cytoxan) at 150 mg/kg on day 4 and 100 mg/kg on day 1 before infection. Mice were anesthetized by i.p. injection of ketamine (40 mg/kg) and xylazine (6 mg/kg) and intranasally inoculated with 0.05 mL of the prepared P. aeruginosa suspension by placing droplets onto the nares and allowing inhalation. Following inoculation, mice were returned to cages for recovery. […] At predetermined time points (0.083, 0.25, 0.5, 1, 2, 4, 8, and 24 h), groups of three mice were euthanized by CO2 asphyxiation. Blood was collected by cardiac puncture into tubes containing EDTA or serum separator gel, centrifuged at 4 °C, and plasma or serum was harvested within 30 min of collection. Bronchoalveolar lavage fluid (BALF) was collected to determine drug concentrations at the site of infection. Briefly, 1.2 mL of sterile 0.9% NaCl was instilled into the lungs via the trachea and gently withdrawn. The epithelial lining fluid (ELF) dilution factor was determined by the blood urea nitrogen (BUN) method. Plasma and BALF samples were stored at −80 °C until analysis. Drug concentrations were quantified by LC-MS/MS using a Surveyor HPLC system coupled to a TSQ Quantum Ultra triple-quadrupole mass spectrometer (Thermo Scientific). Separation was achieved on a Phenomenex Kinetex PFP column (50 × 2.1 mm, 2.6 µm) with a mobile phase gradient of water (0.1% formic acid, A) and acetonitrile (0.1% formic acid, B) at 0.5 mL/min. The gradient proceeded from 10% to 90% B over 4 min, held for 1 min, and re-equilibrated to initial conditions. The column oven was maintained at 30 °C. […] Samples (50 µL plasma or BALF) were spiked with 10 µL of internal standard in methanol, precipitated with 150 µL acetonitrile, vortexed, sonicated for 10 min, and centrifuged at 14,500 rpm for 5 min. A 100 µL aliquot of the supernatant was transferred to autosampler vials, and 10 µL was injected for analysis. Concentration-time data were analyzed using noncompartmental methods (PK Solutions v2.0; Summit Research Services, Montrose, CO, USA). Parameters including area under the concentration-time curve (AUC0-t), maximum concentration (Cmax), time to Cmax (Tmax), apparent volume of distribution (Vd), systemic clearance (CL), and terminal half-life (t½) were calculated. Data are presented as means ± standard deviation (SD) for three animals per time point.

[1] = tested on: P. aeruginosa CDC AR-0232, AR-0248, AR-0249; format: cell-based, Pseudomonas aeruginosa
Experimental: Frequency-of-resistance studies were carried out as described previously.

P. aeruginosa ATCC 27853 = experiment: Neutropenic murine lung infection model; format: in vivo, CD-1 mice; conditions: for Mean Log10 CFU (lung): +24 hr
Experimental: For the lung infection model, mice were anesthetized by IP injection of 0.15 mL of a ketamine (40 mg/kg) + xylazine (6 mg/kg) mixture and inoculated intranasally (IN) with 0.05 mL of a 4 × 10^8 CFU/mL bacterial suspension applied dropwise to the external nares. Two hours post-infection, mice received test articles IV (EPIs) or SC (levofloxacin). At 2 h or 24 h post-infection, mice were euthanized by CO2 asphyxiation, and lungs were aseptically removed, placed in 2 mL sterile PBS, and homogenized using the same procedure described above. Homogenates were serially diluted and plated (8 µL spots) onto BHI-charcoal and citrate agar, incubated overnight at 37 °C, and colonies were counted the following day.

[2] = levofloxacin 15 mg/kg SC QID, alone or with TXA11114 30 mg/kg IV QID
[3] = levofloxacin 30 mg/kg SC QID, alone or with TXA11114 30 mg/kg IV QID

T1 sequence (P33261 whole entry): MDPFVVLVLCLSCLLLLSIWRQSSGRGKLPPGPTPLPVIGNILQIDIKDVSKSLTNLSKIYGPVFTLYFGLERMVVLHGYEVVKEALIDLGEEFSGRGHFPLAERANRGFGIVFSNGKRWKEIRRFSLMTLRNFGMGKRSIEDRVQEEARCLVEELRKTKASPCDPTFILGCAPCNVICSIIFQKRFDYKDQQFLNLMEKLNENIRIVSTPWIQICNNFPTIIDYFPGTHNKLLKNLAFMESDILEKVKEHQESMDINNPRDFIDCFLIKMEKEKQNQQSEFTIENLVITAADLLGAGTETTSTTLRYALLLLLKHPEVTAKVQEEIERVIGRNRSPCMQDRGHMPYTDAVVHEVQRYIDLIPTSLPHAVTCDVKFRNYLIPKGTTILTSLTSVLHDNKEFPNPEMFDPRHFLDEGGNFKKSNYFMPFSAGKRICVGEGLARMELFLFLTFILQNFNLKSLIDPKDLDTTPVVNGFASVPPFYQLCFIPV
T2 sequence (P11712 whole entry): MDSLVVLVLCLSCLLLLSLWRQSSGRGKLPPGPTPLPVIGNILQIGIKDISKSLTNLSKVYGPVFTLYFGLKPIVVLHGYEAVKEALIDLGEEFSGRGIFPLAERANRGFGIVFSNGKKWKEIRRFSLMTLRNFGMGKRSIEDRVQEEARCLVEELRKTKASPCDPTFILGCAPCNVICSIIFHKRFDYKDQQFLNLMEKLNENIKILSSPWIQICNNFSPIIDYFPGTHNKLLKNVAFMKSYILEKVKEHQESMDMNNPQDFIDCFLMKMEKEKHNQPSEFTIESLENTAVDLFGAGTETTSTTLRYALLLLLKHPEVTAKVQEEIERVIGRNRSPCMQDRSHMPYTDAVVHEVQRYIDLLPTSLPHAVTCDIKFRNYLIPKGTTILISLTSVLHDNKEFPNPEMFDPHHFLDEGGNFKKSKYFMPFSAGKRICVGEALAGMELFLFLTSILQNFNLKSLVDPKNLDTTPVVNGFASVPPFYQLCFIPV
T3 sequence (P05177 whole entry): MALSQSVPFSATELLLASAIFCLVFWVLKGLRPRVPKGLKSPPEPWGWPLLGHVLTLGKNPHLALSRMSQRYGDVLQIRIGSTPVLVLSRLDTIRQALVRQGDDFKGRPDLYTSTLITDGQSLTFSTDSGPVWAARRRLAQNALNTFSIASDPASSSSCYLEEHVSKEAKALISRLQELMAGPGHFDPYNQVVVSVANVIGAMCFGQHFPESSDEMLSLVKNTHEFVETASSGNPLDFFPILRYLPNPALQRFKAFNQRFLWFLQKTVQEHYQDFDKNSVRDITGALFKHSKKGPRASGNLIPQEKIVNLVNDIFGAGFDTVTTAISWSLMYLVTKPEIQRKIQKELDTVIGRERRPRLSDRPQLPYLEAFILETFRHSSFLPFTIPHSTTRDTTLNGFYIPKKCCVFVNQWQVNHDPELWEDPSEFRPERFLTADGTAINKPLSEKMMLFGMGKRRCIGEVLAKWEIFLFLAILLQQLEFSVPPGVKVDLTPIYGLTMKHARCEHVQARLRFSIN

Work on `NC[C@@H]1CN[C@H](CNC(=O)c2cc3ccc(-c4ccc(F)cc4)cc3[nH]2)C1` [TXA09155] yielded an IC50 at 20 min (CYP2C19; probe S-mephenytoin) of over 100 µM, an IC50 at 10 min (CYP2C9; probe diclofenac) of over 100 µM and an IC50 at 10 min (CYP1A2; probe phenacetin) of over 100 µM.

`C[C@H]1COc2c(N3CCN(C)CC3)c(F)cc3c(=O)c(C(=O)O)cn1c23` [Levofloxacin, levofloxacin] gave a Cmax (in vivo; BALF Cmax) of 2000 ng/mL, a Tmax (in vivo; BALF Tmax) of 15 min and an AUC(0-t) (in vivo; Plasma AUC 0-t) of 32900 ng·h/mL. It also gave a Cmax (in vivo; Plasma Cmax) of 24100 ng/mL, a half-life (in vivo) of 88.8 min and a Tmax (in vivo; Plasma Tmax) of 15 min. For the same compound, the Vd (in vivo) was 1.89 L/kg, the AUC(0-t) (in vivo; sc, BALF AUC 0-t) was 3900 ng·h/mL and the “Frequency of Resistance” value ([1]; CDC AR-0232, levofloxacin 4× MIC (32 μg/mL) alone) was 1.68 × 10^−8. The “Frequency of Resistance” value ([1]; CDC AR-0248, levofloxacin 4× MIC (64 μg/mL) alone) was 8.64 × 10^−8, the “Frequency of Resistance” value ([1]; CDC AR-0249, levofloxacin 4× MIC (256 μg/mL) alone) was 2.15 × 10^−8 and the “Mean Log10 CFU (lung)” value (P. aeruginosa ATCC 27853; [2]) was 5.86 log10 CFU. For the same compound, the “Mean Log10 CFU (lung)” value (P. aeruginosa ATCC 27853; [3]) was 3.98 log10 CFU, the “Mean Log10 CFU Change vs +2 hr Control, Δlog10 (treatment-baseline), lung” value (P. aeruginosa ATCC 27853; [2]) was 1.27 log10 CFU and the “Mean Log10 CFU Change vs +24 hr Control, lung” value (P. aeruginosa ATCC 27853; [2]) was 3.03 log10 CFU. For the same compound, the “Reduction of lung CFU at 24 h post-infection” value (P. aeruginosa ATCC 27853; [3]) was 0.61 log10 CFU.

`NCC(F)C[C@@H](N)CNC(=O)c1cc2ccc(-c3ccc(F)cc3)cc2[nH]1` (stereo partly drawn) [TXA11114, N-((2R)-2,5-diamino-4-fluoropentyl)-6-(4-fluorophenyl)-1H-indole-2-carboxamide] showed an AUC(0-t) (in vivo; BALF AUC 0-t) of 13200 ng·h/mL, a Tmax (in vivo; BALF Tmax) of 240 min and an AUC(0-t) (in vivo; Plasma AUC 0-t) of 30700 ng·h/mL. The Cmax (in vivo; Plasma Cmax) was 13000 ng/mL, the half-life (in vivo) was 110 min and the Tmax (in vivo; Plasma Tmax) was 4.98 min. The Vd (in vivo) was 2.5 L/kg, the “Frequency of Resistance” value [1] was <1.00 × 10^−10 and the “Frequency of Resistance” value ([1]; CDC AR-0248, levofloxacin 4× MIC (64 μg/mL) + TXA11114 […]) was <1.47 × 10^−10. The “Frequency of Resistance” value ([1]; CDC AR-0249, levofloxacin 4× MIC (256 μg/mL) + TXA11114 […]) was <8.77 × 10^−11, the pIC50 (CYP2C19) was under 4.00 and the pIC50 (CYP2C9) was under 4.00. The pIC50 (CYP1A2) was under 4.00, the “Effect of EPI alone on bacterial burden, lung” value (P. aeruginosa ATCC 27853; 30 mg/kg, IV, QID) was “did not reduce bacterial burden” and the “Mean Log10 CFU (lung)” value (P. aeruginosa ATCC 27853; TXA11114 30 mg/kg IV QID alone) was 8.75 log10 CFU. For the same compound, the “Mean Log10 CFU Change vs +2 hr Control, Δlog10 (treatment-baseline), lung” value (P. aeruginosa ATCC 27853; TXA11114 30 mg/kg IV QID alone) was 4.16 log10 CFU.
